In patent US11970450B2, “Multi-component crystals of an orally available HIF prolyl hydroxylase inhibitor” (Sandoz AG, priority 2018, dated 2024):
Where two headings read alike, the source gives them in different places.

Assays:
[1] = Thermal stability by differential scanning calorimetry (DSC); assay type: physicochemical; details: for DSC: thermal events / phase transformations before melting / Thermal stability: 25 to 250° C. at 10 K/min; for DSC: thermal events / phase transformations before melting: nitrogen purge; for Physically stable toward temperature stress: no thermal events in DSC until start to melt at: DSC 10 K/min; for Thermal stability: Table 7 summary, temperature stress, DSC and TGA
Experimental: DSC was performed on a Mettler Polymer DSC R instrument. […] Nitrogen (purge rate 50 mL/min) was used as purge gas.

[2] = Thermogravimetric analysis (TGA) mass loss on heating; assay type: physicochemical; details: 10 K/min
Experimental: TGA was performed on a Mettler TGA/DSC 1 instrument. The samples (9.53 mg Form 1 and 8.16 mg Form 2, 8.12 mg 1,4-dioxane solvate) were heated in a 100 microliter aluminum pan closed with an aluminum lid. The lid was automatically pierced at the beginning of the measurement. The samples were heated from 25 to 250° C. at a rate of 10 K/min. Nitrogen (purge rate 50 mL/min) was used as purge gas.
Also, no significant mass loss is visible in the TGA curves of Form 1 and Form 2 until they melt.

[3] = cited from earlier work
[4] = up to a temperature of about 170° C.

In the case of `O=C(O)CNC(=O)c1ncc(-c2cccc(Cl)c2)cc1O` [Vadadustat L-proline form 2, vadadustat L-proline], the “DSC: thermal events / phase transformations before melting” value ([1]; listed as vadadustat L-proline form 2) is reported as “undergoes no phase transformations but is stable until it melts”, the “Physically stable toward temperature stress: no thermal events in DSC until start to melt at” value ([1]; listed as Form 2) is reported as about 178 °C and the TGA mass loss ([2]; up to a temperature of about 180° C.) is reported as “about 0.15 weight %”.
In the case of `O=C(O)CNC(=O)c1ncc(-c2cccc(Cl)c2)cc1O` [Vadadustat L-proline form 1, vadadustat L-proline], the “DSC: thermal events / phase transformations before melting” value ([1]; listed as vadadustat L-proline form 1) is reported as “undergoes no desolvation or phase transformations but is stable until it melts”, the “Physically stable toward temperature stress: no thermal events in DSC until start to melt at” value ([1]; listed as Form 1) is reported as “about 170 °C” and the Thermal stability [1] is reported as “physically stable until melting at”. For the same compound, the TGA mass loss [2, 4] was “about 0.20 weight %”.
In the case of `C1COCCO1.O=C(O)CNC(=O)c1ncc(-c2cccc(Cl)c2)cc1O` [Vadadustat 1,4-dioxane solvate, reference compound], the “DSC onset of first broad endothermic peak (release of 1,4-dioxane from the crystal structure)” value ([1]; 10 K/min) is reported as “about 78 °C”, the Thermal stability [1] is reported as “desolvation below 100 °C” and the “Temperature at which TGA mass loss starts” value [2] is reported as “about 40 °C”. For the same compound, the TGA mass loss [2, 4] was “about 19 weight %”.
In the case of `O=C(O)CNC(=O)c1ncc(-c2cccc(Cl)c2)cc1O` [Vadadustat hydrate], the Thermal stability ([3]; Table 7 summary, hydrate of WO 2018/108101 A1, temperature stress) is given as “dehydration below 100 °C” and the “Physical stability upon temperature stress” value ([3]; background statement on hydrate CS2 of WO 2018/108101 A1) is given as “physically unstable upon temperature stress”.
